# Data published in article PMC8070004, “Isorhamnetin Ameliorates Dry Eye Disease via CFTR Activation in Mice” (International Journal of Molecular Sciences, 2021).
# Key:
# human ΔF508-CFTR = target: T1, human ΔF508-CFTR (Homo sapiens, UniProt P13569, DEL508-508); experiment: Apical membrane current in FRT cells expressing low-temperature-rescued ΔF508-CFTR; type: cell-based
# T1 construct: expressed in transfected cells; host or cells: FRT (Fisher rat thyroid) cells, provided by Dr. Alan Verkman; 27 °C for 24 h
# Method: Snapwell inserts containing CFTR-expressing FRT and T84 cells were mounted in Ussing chambers (Physiologic Instruments, San Diego, CA, USA). Forskolin, isorhamnetin, and CFTRinh-172 were added to the apical and basolateral bath solution. For FRT cells, the apical bath was filled with a half-Cl^− solution and the basolateral bath was filled with HCO^3--buffered solution to generate transepithelial Cl^− gradient (apical, 64 mM; basolateral, 129 mM), and the basolateral membrane was permeabilized with 250 µg/mL amphotericin B. For T84 cells, symmetrical HCO^3--buffered solutions were used, and ENaC was inhibited with amiloride (100 µM). All cells were bathed for a 20-min stabilization period and aerated with 95% O2/5% CO2 at 37 °C. Apical membrane current and short-circuit current were measured with an EVC4000 Multi-Channel V/I Clamp (World Precision Instruments, Sarasota, FL, USA) and recorded using PowerLab 4/35 (AD Instruments, Castle Hill, Australia). Data were collected and analyzed with ADInstruments acquisition software Labchart Pro 7 software. The sampling rate was 4 Hz.
# WT-CFTR = WT-CFTR (Homo sapiens, UniProt P13569); experiment: Whole-cell patch clamp in CHO-K1 cells expressing WT-CFTR; type: cell-based; parameters: expressed in transfected cells; host or cells: CHO-K1; details: 30 μM isorhamnetin; linear current/voltage relationship
# Method: Whole-cell, patch clamp recordings were performed on CFTR-expressing CHO cells. The bath solution contained (in mM) 140 NMDG-Cl, 1 CaCl2, 1 MgCl2, 10 glucose, and 10 HEPES (pH 7.4). The pipette solution contained (in mM) 130 CsCl, 0.5 EGTA, 1 MgCl2, 1 Tris-ATP, and 10 HEPES (pH 7.2). […] Seal resistances were between 3 and 10 GΩ. After establishing the whole-cell configuration, CFTR was activated by forskolin and/or isorhamnetin. […] Recordings were made at room temperature using an Axopatch-200B (Axon Instruments, San Jose, CA, USA). Currents were digitized with a Digidata 1440A converter (Axon Instruments), filtered at 5 kHz, and sampled at 1 kHz.
# T1 sequence (P13569 with tags, fused parts or gaps DEL508-508): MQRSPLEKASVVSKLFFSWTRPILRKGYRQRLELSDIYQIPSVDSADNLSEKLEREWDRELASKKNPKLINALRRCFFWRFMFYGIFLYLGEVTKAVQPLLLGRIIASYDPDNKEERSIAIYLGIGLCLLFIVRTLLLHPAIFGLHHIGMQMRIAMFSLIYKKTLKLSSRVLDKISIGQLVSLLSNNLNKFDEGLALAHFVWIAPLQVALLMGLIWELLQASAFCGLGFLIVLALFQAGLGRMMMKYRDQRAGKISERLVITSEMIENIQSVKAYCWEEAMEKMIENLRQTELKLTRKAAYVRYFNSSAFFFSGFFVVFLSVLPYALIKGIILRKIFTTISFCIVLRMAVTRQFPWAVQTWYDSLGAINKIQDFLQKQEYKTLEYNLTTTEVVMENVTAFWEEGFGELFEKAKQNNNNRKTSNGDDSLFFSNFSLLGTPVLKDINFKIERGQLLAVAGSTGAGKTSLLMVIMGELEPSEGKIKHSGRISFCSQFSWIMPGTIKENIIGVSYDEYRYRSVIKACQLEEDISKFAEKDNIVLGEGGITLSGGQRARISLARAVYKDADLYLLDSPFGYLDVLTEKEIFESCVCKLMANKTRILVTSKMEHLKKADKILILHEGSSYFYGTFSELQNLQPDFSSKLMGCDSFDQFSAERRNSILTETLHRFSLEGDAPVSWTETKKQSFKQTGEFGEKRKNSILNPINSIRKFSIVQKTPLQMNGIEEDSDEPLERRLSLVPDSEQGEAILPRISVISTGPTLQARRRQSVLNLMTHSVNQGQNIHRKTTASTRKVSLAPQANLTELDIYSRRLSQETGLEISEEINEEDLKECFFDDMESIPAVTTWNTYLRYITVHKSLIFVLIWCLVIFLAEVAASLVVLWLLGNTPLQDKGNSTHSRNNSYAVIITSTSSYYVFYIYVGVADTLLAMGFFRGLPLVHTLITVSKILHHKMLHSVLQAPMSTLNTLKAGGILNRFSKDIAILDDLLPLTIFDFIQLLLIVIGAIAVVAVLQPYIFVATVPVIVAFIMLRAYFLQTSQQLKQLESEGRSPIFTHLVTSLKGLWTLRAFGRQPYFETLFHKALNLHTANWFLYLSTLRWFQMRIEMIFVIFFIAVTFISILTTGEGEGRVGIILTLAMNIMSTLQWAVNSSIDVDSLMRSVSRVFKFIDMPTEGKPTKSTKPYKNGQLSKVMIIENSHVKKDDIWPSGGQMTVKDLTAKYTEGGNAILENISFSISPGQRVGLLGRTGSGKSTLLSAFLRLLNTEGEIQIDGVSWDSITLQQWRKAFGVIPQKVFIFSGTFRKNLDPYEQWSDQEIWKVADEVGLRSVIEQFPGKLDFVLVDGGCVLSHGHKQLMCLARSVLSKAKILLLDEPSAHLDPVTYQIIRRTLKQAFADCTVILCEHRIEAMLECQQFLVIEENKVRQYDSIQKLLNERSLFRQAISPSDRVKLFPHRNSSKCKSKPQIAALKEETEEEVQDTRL
# Chain of WT-CFTR (P13569 whole entry): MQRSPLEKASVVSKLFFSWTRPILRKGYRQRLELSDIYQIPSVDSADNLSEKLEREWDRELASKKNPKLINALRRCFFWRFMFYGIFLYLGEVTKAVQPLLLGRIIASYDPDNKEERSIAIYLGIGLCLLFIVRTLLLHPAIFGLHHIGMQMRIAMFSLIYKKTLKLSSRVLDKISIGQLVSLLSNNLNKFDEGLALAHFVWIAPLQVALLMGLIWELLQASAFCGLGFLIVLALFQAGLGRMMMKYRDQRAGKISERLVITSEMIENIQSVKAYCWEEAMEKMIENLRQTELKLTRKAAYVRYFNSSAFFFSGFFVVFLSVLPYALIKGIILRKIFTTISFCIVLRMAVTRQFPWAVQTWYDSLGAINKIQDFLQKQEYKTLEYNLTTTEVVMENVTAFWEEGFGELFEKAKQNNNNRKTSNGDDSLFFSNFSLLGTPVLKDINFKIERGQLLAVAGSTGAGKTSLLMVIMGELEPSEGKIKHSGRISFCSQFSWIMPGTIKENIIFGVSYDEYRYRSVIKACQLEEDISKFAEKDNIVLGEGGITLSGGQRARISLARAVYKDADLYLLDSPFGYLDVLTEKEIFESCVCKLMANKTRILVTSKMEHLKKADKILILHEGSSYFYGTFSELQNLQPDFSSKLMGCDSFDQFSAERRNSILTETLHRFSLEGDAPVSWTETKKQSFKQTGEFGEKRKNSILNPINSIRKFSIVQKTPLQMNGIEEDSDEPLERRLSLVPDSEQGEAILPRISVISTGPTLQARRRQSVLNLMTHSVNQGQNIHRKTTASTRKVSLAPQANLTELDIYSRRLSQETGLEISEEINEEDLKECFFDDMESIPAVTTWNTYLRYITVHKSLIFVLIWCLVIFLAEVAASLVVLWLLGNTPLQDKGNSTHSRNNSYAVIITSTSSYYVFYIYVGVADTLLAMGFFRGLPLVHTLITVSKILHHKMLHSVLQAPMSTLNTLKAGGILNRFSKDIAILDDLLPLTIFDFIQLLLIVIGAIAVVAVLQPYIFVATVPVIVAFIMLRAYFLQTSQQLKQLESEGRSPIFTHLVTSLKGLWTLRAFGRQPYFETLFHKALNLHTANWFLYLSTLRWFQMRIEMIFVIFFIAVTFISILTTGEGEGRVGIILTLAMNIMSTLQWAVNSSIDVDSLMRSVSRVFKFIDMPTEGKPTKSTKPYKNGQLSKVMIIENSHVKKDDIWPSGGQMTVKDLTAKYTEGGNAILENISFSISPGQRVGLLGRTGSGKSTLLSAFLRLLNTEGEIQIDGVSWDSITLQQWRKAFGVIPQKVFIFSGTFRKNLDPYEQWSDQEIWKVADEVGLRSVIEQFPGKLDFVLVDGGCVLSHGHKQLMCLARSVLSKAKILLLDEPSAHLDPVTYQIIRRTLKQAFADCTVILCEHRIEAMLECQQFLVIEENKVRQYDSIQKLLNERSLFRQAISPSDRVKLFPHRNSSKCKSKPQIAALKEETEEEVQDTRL
smiles,measurement,setting,value
COc1cc(-c2oc3cc(O)cc(O)c3c(=O)c2O)ccc1O [isorhamnetin],ΔF508-CFTR chloride current activated by 20 μM forskolin,human ΔF508-CFTR; 30 μM isorhamnetin,doubled
same,forskolin-induced ΔF508-CFTR chloride current,"human ΔF508-CFTR; dose-dependent, ΔF508-CFTR rescued at 27 °C for 24 h",strongly potentiated
same,CFTR Cl- currents (whole-cell),WT-CFTR,fully activated
